The term IC50 denotes the concentration needed to halve the response being measured. Higher therefore signals a need for much substance.

Among the data in the Kinase Knowledgebase extract (Sharma et al. 2016) are IC50 values, retold here.

This assay deals with EGFR (human) (UniProt P00533).
Sequence of EGFR (human) (P00533 whole entry, looked up): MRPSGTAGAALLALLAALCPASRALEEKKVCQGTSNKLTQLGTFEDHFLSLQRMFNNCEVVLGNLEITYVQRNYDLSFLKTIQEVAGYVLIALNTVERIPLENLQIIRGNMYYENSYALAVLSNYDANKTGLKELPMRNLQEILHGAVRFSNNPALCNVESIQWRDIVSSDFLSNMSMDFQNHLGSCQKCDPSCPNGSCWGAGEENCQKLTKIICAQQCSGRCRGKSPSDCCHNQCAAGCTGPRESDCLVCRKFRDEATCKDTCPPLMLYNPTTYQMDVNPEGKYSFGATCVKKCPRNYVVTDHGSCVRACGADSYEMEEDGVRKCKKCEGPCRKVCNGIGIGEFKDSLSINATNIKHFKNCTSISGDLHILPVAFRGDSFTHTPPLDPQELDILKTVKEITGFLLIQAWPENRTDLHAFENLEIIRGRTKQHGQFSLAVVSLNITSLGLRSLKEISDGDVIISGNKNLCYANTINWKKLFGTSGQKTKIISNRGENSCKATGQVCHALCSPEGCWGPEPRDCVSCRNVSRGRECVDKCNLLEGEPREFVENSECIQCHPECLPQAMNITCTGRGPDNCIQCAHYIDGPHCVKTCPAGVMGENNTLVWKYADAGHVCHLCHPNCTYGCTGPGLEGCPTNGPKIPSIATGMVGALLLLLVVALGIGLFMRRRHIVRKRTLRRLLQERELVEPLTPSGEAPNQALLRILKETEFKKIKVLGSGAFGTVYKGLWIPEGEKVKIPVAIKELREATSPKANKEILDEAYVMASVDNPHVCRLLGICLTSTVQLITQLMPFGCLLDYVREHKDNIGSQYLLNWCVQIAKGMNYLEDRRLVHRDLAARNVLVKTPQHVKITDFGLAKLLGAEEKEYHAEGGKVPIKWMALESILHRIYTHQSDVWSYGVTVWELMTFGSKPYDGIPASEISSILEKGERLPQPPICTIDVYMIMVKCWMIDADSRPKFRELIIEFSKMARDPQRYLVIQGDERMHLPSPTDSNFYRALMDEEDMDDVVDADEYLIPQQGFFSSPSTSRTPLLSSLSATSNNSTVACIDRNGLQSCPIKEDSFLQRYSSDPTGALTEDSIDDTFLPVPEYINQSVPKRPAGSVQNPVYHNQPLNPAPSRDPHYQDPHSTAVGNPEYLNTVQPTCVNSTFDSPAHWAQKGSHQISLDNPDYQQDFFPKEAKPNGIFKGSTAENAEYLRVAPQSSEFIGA

Turning to `CN(C)c1nc(-c2ccc(F)c(NS(=O)(=O)c3c(F)cccc3F)c2)c(-c2ccnc(Nc3ccc(N4CCOCC4)nc3)n2)s1`, the IC50 fell in the range of 0.1 to 1 µM.
In turn, `CC(C)c1nc(-c2cccc(NS(=O)(=O)c3c(F)cccc3F)c2)c(-c2ccnc(Nc3ccc(N4CCN(CCO)CC4)nc3)n2)s1` gave an IC50 of under 0.1 µM.
The figure for `CC(C)c1nc(-c2ccc(F)c(NS(=O)(=O)c3c(F)cccc3F)c2)c(-c2ccnc(Nc3ccc(N4CCOCC4)nc3)n2)s1` is 0.1 to 1 µM; for `COc1cc(N2CCN(CCS(C)(=O)=O)CC2)c(C)cc1Nc1nccc(-c2sc(N3CCOCC3)nc2-c2cccc(NS(=O)(=O)c3c(F)cccc3F)c2)n1` it is under 0.1 µM; for `CC(C)c1nc(-c2ccc(F)c(NS(=O)(=O)c3c(F)cccc3F)c2)c(-c2ccnc(Nc3ccc(N4CCN(CCS(C)(=O)=O)CC4)c(F)c3)n2)s1` it is 0.1 to 1 µM.
Regarding `CC(C)c1nc(-c2cccc(NS(=O)(=O)c3c(F)cccc3F)c2)c(-c2ccnc(Nc3ccc(N4CC[C@@H](O)C4)nc3)n2)s1`, the half-inhibitory concentration (IC50) fell in the range of 0.1 to 1 µM.
The figure for `CC(=O)N1CCc2cc(Nc3nccc(-c4sc(C(C)C)nc4-c4cccc(NS(=O)(=O)c5ccccc5)c4)n3)ccc21` is 0.1 to 1 µM; for `CC(C)c1nc(-c2ccc(F)c(NS(=O)(=O)c3ccccc3C#N)c2)c(-c2ccnc(Nc3ccc(N4CCOCC4)nc3)n2)s1` it is 0.1 to 1 µM.
`COc1cc(OC2CCN(CCS(C)(=O)=O)CC2)c(C)cc1Nc1nccc(-c2sc(C(C)C)nc2-c2cccc(NS(=O)(=O)c3c(F)cccc3F)c2)n1` registered an IC50 of under 0.1 µM.
In turn, `CC(C)c1nc(-c2cccc(NS(=O)(=O)c3ccccc3)c2)c(-c2ccnc(Nc3ccc(N4CCOCC4)nc3)n2)s1` returned an IC50 of 0.1 to 1 µM.
The value for `COc1cc(N2CCN(CCS(C)(=O)=O)CC2)c(C)cc1Nc1nccc(-c2oc(N3CCCC3)nc2-c2cccc(NS(=O)(=O)c3c(F)cccc3F)c2)n1` was 0.1 to 1 µM.
Molecule `CC(C)c1nc(-c2cccc(NS(=O)(=O)c3c(F)cccc3F)c2)c(-c2ccnc(Nc3ccc(N4CCOCC4)nc3)n2)s1` had an IC50 of 0.1 to 1 µM.
In turn, `CC(C)c1nc(-c2ccc(F)c(NS(=O)(=O)c3ccccc3F)c2)c(-c2ccnc(Nc3ccc(N4CCN(CCS(C)(=O)=O)CC4)c(F)c3)n2)s1` displayed a half-maximal inhibitory concentration (IC50) of 0.1 to 1 µM.
The figure for `CCc1nc(-c2cccc(NS(=O)(=O)c3ccccc3)c2)c(-c2ccnc(Nc3ccc(OC)c(N4CCN(CCS(C)(=O)=O)CC4)c3)n2)s1` is 0.1 to 1 µM; for `COc1cc(Nc2nccc(-c3sc(C(C)C)nc3-c3cccc(NS(=O)(=O)c4c(F)cccc4F)c3)n2)cc(OC)c1OC1CCN(CCS(C)(=O)=O)CC1` it is under 0.1 µM; for `CC(C)c1nc(-c2cccc(NS(=O)(=O)c3c(F)cccc3F)c2)c(-c2ccnc(Nc3cccc(N4CCN(C)CC4)c3)n2)s1` it is under 0.1 µM.
As for `O=S(=O)(Nc1cccc(-c2nc(N3CCOCC3)sc2-c2ccnc(Nc3ccc(N4CCOCC4)nc3)n2)c1F)c1c(F)cccc1F`, the IC50 lay in the range of 0.1 to 1 µM.
In turn, `Cc1cc(Nc2nccc(-c3sc(C(C)C)nc3-c3ccc(F)c(NS(=O)(=O)c4c(F)cccc4F)c3)n2)ccn1` registered an IC50 of 0.1 to 1 µM.
`COc1cc(N2CCN(CCS(C)(=O)=O)CC2)c(C)cc1Nc1nccc(-c2sc(C(C)C)nc2-c2cccc(NS(=O)(=O)c3c(F)cccc3F)c2F)n1` displayed an IC50 of under 0.1 µM.
The molecule `CC(C)c1nc(-c2cccc(NS(=O)(=O)c3c(F)cccc3F)c2)c(-c2ccnc(Nc3ccc(N4CCN(CCF)CC4)c(F)c3)n2)s1` registered a half-maximal inhibitory concentration (IC50) of 0.1 to 1 µM.
The value for `COc1cc(N2CCN(CCS(C)(=O)=O)CC2)c(C)cc1Nc1nccc(-c2sc(C(C)C)nc2-c2cccc(NS(=O)(=O)c3ccco3)c2)n1` was under 0.1 µM; that for `COc1cc(N2CCN(CCS(C)(=O)=O)CC2)c(C)cc1Nc1nccc(-c2sc(C(C)C)nc2-c2cc(NS(=O)(=O)c3c(F)cccc3F)ccc2F)n1` was 0.1 to 1 µM; that for `CCOc1ccc(Nc2nccc(-c3sc(N4CCCC4)nc3-c3cccc(NS(=O)(=O)c4c(F)cccc4F)c3)n2)cc1N1CCN(CCS(C)(=O)=O)CC1` was under 0.1 µM.
The value for `CN1CCC(c2nc(-c3ccc(F)c(NS(=O)(=O)c4c(F)cccc4F)c3)c(-c3ccnc(Nc4ccc(N5CCOCC5)nc4)n3)s2)CC1` was 0.1 to 1 µM.
In turn, `COc1cc(N2CCN(CCS(C)(=O)=O)CC2)c(C)cc1Nc1nccc(-c2sc(C(C)C)nc2-c2cccc(NS(=O)(=O)c3c(F)cccc3F)n2)n1` had a concentration for half-maximal inhibition (IC50) of under 0.1 µM.
`O=S1(=O)Cc2ccc(Nc3nccc(-c4sc(N5CCOCC5)nc4-c4cccc(NS(=O)(=O)c5c(F)cccc5F)c4F)n3)cc2C1` came in with an IC50 of 0.1 to 1 µM.
The figure for `COc1cc(N2CCN(CCS(C)(=O)=O)CC2)c(C)cc1Nc1nccc(-c2sc(C(C)C)nc2-c2cccc(NS(=O)(=O)c3cccs3)c2)n1` is under 0.1 µM.
